The results in this text go back to paper PMC5603603, “Linoleic and palmitoleic acid block streptokinase-mediated plasminogen activation and reduce severity of invasive group A streptococcal infection” (Scientific Reports, 2017).

In this assay the target is T1, staphylokinase (Staphylococcus aureus, UniProt P68801).
T1 construct: purchased Cedarlane Labs
As to the kind of experiment: Plasminogen assay with staphylokinase as activator of plasminogen. Format: biochemical. Conditions: staphylokinase 2 µg/ml; compared to untreated control. The method, then: Supernatant of an overnight culture of the GAS strain A614 was used as this strain secretes a cluster 2a type streptokinase. 75 µl of the culture supernatant was added to the wells of a 96well plate followed by 69 µl PBS, 5 µl S-2251 (10 mM stock solution, chromogenic substrate for the detection of plasmin, Chromogenix) and 1 µl plasminogen (1 mg/ml stock solution, Biopur or Sigma). 1 µl of each myxobacterial extract or each myxobacterial compound (dissolved in methanol, 1 mM) was added to test possible inhibition of plasminogen activation. The assay was run at 37 °C. The absorption was measured at the beginning of the reaction and then every hour at 405 nm after 3 sec of shaking on a Tecan Sunrise ELISA Reader using Magellan software. The reaction was finished when untreated samples had reached an OD405nm of about 1.
The assay was conducted as described above using staphylokinase (Cedarlane Labs) as an activator of plasminogen (staphylokinase final concentration 2 µg/ml per well in 75 µl of PBS. Stocks of LA and PA were prepared in methanol and then diluted in PBS. The untreated control received the same amount of methanol diluted in PBS as in case of treatment with PA or LA. Each experiment was repeated three times.

T1 sequence (P68801 28-163): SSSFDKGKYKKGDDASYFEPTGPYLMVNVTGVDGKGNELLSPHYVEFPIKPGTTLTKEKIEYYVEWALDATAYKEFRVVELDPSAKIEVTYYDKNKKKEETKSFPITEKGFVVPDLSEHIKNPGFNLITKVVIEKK

Regarding `CCCCC/C=C\C/C=C\CCCCCCCC(=O)O` [LA, linoleic acid], the “inhibition of staphylokinase-mediated plasminogen activation” value is “not inhibited”. Then `CCCCCC/C=C\CCCCCCCC(=O)O` [PA, palmitoleic acid], with “not inhibited”.
